Data taken from patent US20090105189A1, “METHODS AND COMPOSITIONS FOR AMELIORATING OR INHIBITING DECLINE IN MEMORY OR INTELLIGENCE OR IMPROVING SAME” (priority 2006, published 2009).

Experiments:
Assay type in all cases: cell-based
PC12 cells [1] = assay: Uptake of uridine into PC12 cells; conditions: P2Y receptor antagonists
P2Y receptors = assay: P2Y receptor antagonism of uridine-enhanced NGF-stimulated neurite outgrowth in PC12 cells; conditions: PC12, 4 days, uridine 100 μM
Procedure: (§1) PC12 cells were sparsely plated on collagen-coated 60 mm culture dishes in MEM containing 1% fetal bovine serum. […] All treatments were performed 24 h after plating. At the end of the treatment period, images were obtained with a phase-contrast Zeiss Axioplan 2 microscope, using OpenLab software. Six digital images were captured for each dish, for a total of 18 to 24 images per treatment group. Approximately 300 cells were quantified for each treatment group for each experiment. Experiments were performed in triplicate. Quantification of neurites, including neurite branching and neurite length, was performed by one more researchers blinded to experimental groups. Neurite length was measured using the public domain NIH software “Image J.” Processes longer than the diameter of the cell body were counted as neurites. Only process-bearing cells were analyzed.

[2] = system: PLC/DAG/IP3 signaling pathway; assay: PI turnover (inositol phosphate formation) in NGF-differentiated PC12 cells; conditions: for Formation of IP (PI turnover): 1 hour
Procedure: Analysis of PI turnover was performed as described by ([…] et al, J Neurochem 69: 704-12, 1997). Briefly, cells were labeled metabolically for 36 h with 1.25 microCurie (μCi)/dish of myo-[2-^3H]inositol (17-0 Curie/mmol; Amersham Biosciences) in serum-free MEM, washed twice with Hank's balanced salt solution (HBSS), and treated for 15 min with 10 mM lithium chloride in HBSS. Drugs were added in the presence of 10 mM lithium for 60 min at 37° C. Cells were lysed with ice-cold methanol, and lipids were removed by extraction with chloroform/methanol/water (2:2:1 by volume). Labeled water-soluble inositol phosphates were separated from free [^3H]inositol by ion-exchange chromatography, using AG 1-X8 columns (Bio-Rad), and 1M ammonium formate and 0.1M formic acid as eluent. Radioactivity was quantified by liquid scintillation spectrometry. P2Y2, P2Y4 and P2Y6 receptors activate the phospholipase C/diacylglycerol/inositol triphosphate (PLC/DAG/IP3) signaling pathway. […] These findings indicate that UTP promotes neurite outgrowth via P2Y receptors-mediated stimulation of the IP signaling pathway.

PC12 cells [3] = assay: NGF-induced neurite outgrowth in PC12 cells; conditions: for Number of neurites per cell: PC12, with NGF
Procedure: PC12 cells were maintained in Minimal Essential Medium (MEM; Invitrogen, Carlsbad, Calif.) supplemented with 10% fetal bovine serum (FBS) at 37° C. Experimental incubations were for 2 or 4 days in medium containing 50 ng/ml mouse 2.5 S (2.5 subunit) NGF and 1% FBS, with or without test compounds. NGF and FBS were obtained from Invitrogen.
as §1

PC12 cells [4] = assay: Intracellular UTP and CTP levels in PC12 cells by HPLC; conditions: PC12, 2 days with NGF, vs NGF only
Procedure: (§2) Brain tissue or cells was dissolved in methanol/chloroform (1:2 vol/vol), centrifuged, and the aqueous phase was dried under vacuum, resuspended in 100-200 μL water and separated by HPLC on an ion-exchange column (Alltech Hypersil APS-2, 5 μM, 250×4.6 mm). CDP-choline was eluted with a linear gradient of NaH2PO4 buffers A (1.75 mM NaH2PO4, pH 2.9) and B (500 mM, pH 4.5), which allowed resolution of CDP-choline from closely co-eluting substances such as UMP over 40 min. The retention time for CDP-choline was 9.5 min. Individual nucleotide peaks were detected by UV absorption at […], and were identified by comparison with the positions of authentic standards, as well as by the addition of nucleotide standards to selected samples.
Levels of intracellular UTP and CTP were analyzed by HPLC as described for Example 5, except that 5 mM NaH2PO4, pH 2.65 was used as buffer A.

[5] = system: P2Y2, P2Y4 and P2Y6 receptors; assay: P2Y receptor expression in NGF-differentiated PC12 cells; conditions: vs NGF alone
Procedure: Western blots utilized rabbit anti-P2Y2, anti-P2Y4 (both from Calbiochem); or rabbit anti-P2Y6 (Novus Biologicals, Littleton, Colo.). PC12 cells were treated as described above, except they were grown on 12 mm glass cover slips ([…] & Co., Vernon Hills, Ill.) coated with collagen. Proteins were visualized using immunofluorescence. […] For P2Y2 and P2Y4 visualization, control cultures were incubated with primary antibody plus a control antigen in order to ensure that the immuno-staining would be specific. Control antigen was not available for the P2Y6 receptor. Cells were then incubated in fluorochrome-conjugated secondary antibodies for 1 hour (goat anti-rabbit ALEXA 488 and goat anti-mouse ALEXA 568; Molecular Probes, Eugene, Oreg.) and mounted on glass slides with mounting media with or without DAPI (Vector Laboratories, Burlingame, Calif.). Control antigens provided with the primary antibodies were used to ensure that immuno-staining was specific. […] To determine whether these receptors participate in the mechanism by which extracellular UTP affects neurite outgrowth, it was first determined whether the receptors are expressed in PC 12 cells, and whether exposure to NGF alters their expression, PC 12 cells were treated for 0-7 days with NGF and levels of the receptors measured. […]

PC 12 cells = assay: Intracellular CDP-choline levels in PC12 cells treated with uridine; conditions: uridine treatment, after 50 minutes
Procedure: as §2

Cc1nc(N=Nc2ccc(S(=O)(=O)O)cc2S(=O)(=O)O)c(COP(=O)(O)O)c(C=O)c1O [PPADS, pyridoxal-phosphate-6-azophenyl-2′,4′ disulfonic acid]
Inhibition of uptake of uridine into PC12 cells (PC12 cells [1]): None of the P2Y receptor antagonists inhibited
Block of uridine enhancement of NGF-stimulated neurite outgrowth (P2Y receptors; antagonist 30 μM): significantly (p<0.05 or 0.001) blocked
Block of UTP-stimulated IP signaling ([2]; NGF-differentiated PC12, antagonist 100 μM): significantly (p<0.05) blocked

Nc1c(S(=O)(=O)O)cc(Nc2ccc(Nc3nc(Cl)nc(Nc4cccc(S(=O)(=O)O)c4)n3)c(S(=O)(=O)O)c2)c2c1C(=O)c1ccccc1C2=O [RB-2, reactive blue 2]
Inhibition of uptake of uridine into PC12 cells (PC12 cells [1]): None of the P2Y receptor antagonists inhibited
Block of uridine enhancement of NGF-stimulated neurite outgrowth (P2Y receptors; antagonist 10 μM): significantly (p<0.05 or 0.001) blocked

O=c1ccn([C@@H]2O[C@H](COP(=O)(O)OP(=O)(O)OP(=O)(O)O)[C@@H](O)[C@H]2O)c(=O)[nH]1 [UTP, uridine-5′-triphosphate]
Neurite outgrowth (neurites per cell) (PC12 cells [3]; PC12, NGF, 10 and 50 μM, 4 days, vs NGF only): significantly (p<0.01) enhanced
Formation of IP (PI turnover) ([2]; NGF-differentiated PC12, 100 μM): significantly increased
Intracellular CTP levels (PC12 cells [4]; 100 μM): did not significantly affect
Intracellular UTP levels (PC12 cells [4]; 100 μM): did not significantly affect

Nc1ccn([C@@H]2O[C@H](CO)[C@@H](O)[C@H]2O)c(=O)n1 [cytidine]
Neurite outgrowth (PC12 cells [3]; NGF-exposed PC12 cells, cytidine treatment): had no effect on neurite outgrowth
Intracellular CTP levels (PC12 cells [4]; 50 μM): did not significantly affect
Intracellular UTP levels (PC12 cells [4]; 50 μM): did not significantly affect

Cc1ccc(C(=O)Nc2ccc(S(=O)(=O)O)c3cc(S(=O)(=O)O)cc(S(=O)(=O)O)c23)cc1NC(=O)c1cccc(NC(=O)Nc2cccc(C(=O)Nc3cc(C(=O)Nc4ccc(S(=O)(=O)O)c5cc(S(=O)(=O)O)cc(S(=O)(=O)O)c45)ccc3C)c2)c1 [suramin]
Inhibition of uptake of uridine into PC12 cells (PC12 cells [1]): None of the P2Y receptor antagonists inhibited
Block of uridine enhancement of NGF-stimulated neurite outgrowth (P2Y receptors; antagonist 30 μM): significantly (p<0.05 or 0.001) blocked

O=c1ccn([C@@H]2O[C@H](CO)[C@@H](O)[C@H]2O)c(=O)[nH]1 [uridine]
Average neurite length (PC12 cells [3]; NGF-differentiated PC12 cells): did not significantly affect
Number of neurite branch points per cell (PC12 cells [3]; PC12, NGF, 50 μM, 4 days, vs NGF only): significantly (p<0.01) increased
Production of neurites (PC12 cells [3]; PC12, absence of NGF, 50 μM, 2 or 4 days): did not result in the production of neurites
Number of neurites per cell (PC12 cells [3]; 2-day treatment or lower concentrations (10, 25 μM)): had no effect
Number of neurites per cell (PC12 cells [3]; 50-200 μM, 4 days): significantly (p<0.01 or 0.001) enhanced
Expression of P2Y2, P2Y4 and P2Y6 receptors [5]: did not affect the expression of the receptors
Formation of IP (PI turnover) ([2]; NGF-differentiated PC12, 50 μM): significantly increased
Intracellular CDP-choline levels (PC 12 cells): statistically significant increase
Intracellular CTP levels (PC12 cells [4]; 50 μM): significantly (p<0.05) increased
Intracellular UTP levels (PC12 cells [4]; 50 μM): significantly (p<0.05) increased
